The values below are quoted from earlier work in patent publication US11304923B2, “Use of a benzoate containing composition to treat glycine encephalopathy” (Rush University Medical Center, priority 2017, dated 2022).

The test system of series [1] is DJ-1. To be noted: astrocytes and neurons.
Series [2] concerns disease process of multiple sclerosis (MS). The note with it: mice.
Series [3] deals with brain-derived neurotrophic factor (BDNF). The note with it: brain cells.
The subject of series [4] is neurotrophin-3 (NT-3). To be noted: brain cells.

Regarding `O=C([O-])c1ccccc1.[Na+]` [sodium benzoate], the DJ-1 protein level result in series [1] is on record as “up-regulates”. Also, the “disease process of multiple sclerosis (MS)” value in series [2] was “suppresses”. In addition, the “production of BDNF” value in series [3] is on record as “increases”. In addition, the “production of NT-3” value in series [4] is on record as “increases”.
